Reference: patent publication US20240207282A1, “METHOD OF INCREASING CHAPERONE MEDIATED AUTOPHAGY BY STABILIZING THE INTERACTION OF RETINOIC ACID RECEPTOR-ALPHA AND AN INHIBITOR” (ALBERT EINSTEIN COLLEGE OF MEDICINE, priority 2021, published 2024)

How the values were obtained:
[1] = system: NIH3T3; test: Intracellular proteolysis of long half-life proteins (3H-leucine); format: cell-based, mouse; settings: 10 μM; duration of increase after addition
Protocol: Proteolysis was calculated from aliquots of the medium taken at different times and precipitated in trichloroacetic acid, as the amount of acid-precipitable radioactivity transformed to acid-soluble radioactivity at each time.

[2] = system: CMA network; test: Comparative transcriptomic analysis / qPCR of CMA network; format: cell-based, mouse; settings: for changes in the transcriptome: treated cells
Protocol: mRNA-qPCR: RNA was extracted from individual retinas. Total RNA from retinas was extracted using TRIzol Reagent (Invitrogen), and reverse transcription performed using the High-Capacity cDNA Reverse Transcription Kit (Applied Biosystems) according to the manufacturer's instructions. Quantitative real-time PCR was performed in a Light Cycler 480 Instrument (Roche) with Taqman Universal PCR Master Mix using Taqman assays (Life Tech-nologies). The following probes were used: Mm01184405_m1 (rhodopsin), F-5′-CTTAGCTTCTGGGATGC CCC-3′, R-5′-[…]-3′ (lamp2a) F-5′-AA GGACTCCTA TAGTGGG TGACGA-3′, R-5′-[…]-3′ (mouse β-actin).
Microarray: Total RNA of the treated cells was extracted using TRIzol (Invitrogen) and purified with RNeasy chromatography (Qiagen). Cy3-labeled RNA (0.6 μg) from each condition were hybridized to Agilent Mouse 8×60K. Data were processed using the oligo package and normalized using Robust Multiarray Average (RMA) method. Gene set was filtered to remove genes without Entrez or GO annotation (21912 genes out of 55682) and genes with an […]. The full microarray Gomez-Sintes et al. raw data will be deposited in GEO upon acceptance of the manuscript. Pathway analysis was performed using the STRING database ([…]).
CMA index was calculated using data set from Ly (J. Proteome Research (2016) 15: 1350-1359), Gao (2020), and Lane (2020). Briefly, each element of the CMA network was attributed a weight. As LAMP-2A is the rate limiting component of CMA, it was given a weight of 2. Every other element received a weight of 1. Then, every element was attributed direction score that is +1 or −1 based on the known effect of a given element on CMA activity. The score was then calculated as the weighted/directed average of expression counts of every element of the CMA network.

[3] = system: human cells; test: CMA activity, KFERQ-PS-Dendra reporter in human cells; format: cell-based
Protocol: Cells: NIH3T3 mouse fibroblasts and the N2a neuroblastoma cell line were obtained from the American Type Culture Collection and were validated by genomic PCR. Primary human fibroblasts (GM01651) were from Coriell Repository. All the cells lines were tested for mycoplasma contamination using DNA staining protocol with Hoechst 33258 dye. Knock-down of NCoR1 was done using lentiviral mediated shRNA (SHCLNG-NM_011308) from the Sigma Mission library following standard procedures. Efficiency of knock-down was tested by immunoblot. Cell viability was measured using the CellTiter-Blue kit (Promega) 24 h after the addition of the different stressors according to manufacturer's instructions.
CMA activity: Cells were transduced with lentivirus carrying the KFERQ-PS-Dendra reporter as before. Cells were photoactivated by exposure to a 3.5 mA (current constant) light emitting diode (LED: Norlux, 405 nm) for 3 min and then plated in glass-bottom 96 well plates. At the desired times, cells were fixed with 4% PFA and imaged using high-content microscopy (Operetta system, Perkin Elmer). Images were quantified using the manufacturer's software in a minimum of 1,200 cells in 9 independent fields per well. […] To avoid con-funding effects for drug-induced changes in cell volume or adherence to the plate that could bring a fraction of the cells per field outside of focus, we set a threshold to count only cells that have at least 1/10 of the average number of […] detected in the untreated wells for each cell type (3-4 puncta/cell in the case of NIH3T3 and N2a cells and 5 puncta/cell in primary human fibroblasts). […] Slices were mounted in DAPI-Fluoromount-G to highlight the cell nucleus and allow quantification of puncta per cell. Images were acquired in x-y-z planes with an Axiovert 200 fluorescence microscope (Carl Zeiss Ltd) with a ×63 objective and 1.4 numerical aperture, mounted with an ApoTome.2 slider or with a Confocal microscope (TCS SP5; Leica) using an HCX Plan Apo CS×63.0 1.40 NA oil objective and the Leica Application Suite X (LAS X).

[4] = Pharmacokinetics in mice (plasma and brain); format: in vivo, mouse; settings: male, ICR (CD-1), mouse, po, administered orally
Protocol: ICR (CD-1) male mice were fasted at least three hours and water was available ad libitum before the study. Animals were housed in a controlled environment, target conditions: temperature 18 to 29° C., relative humidity 30 to 70%. Temperature and relative humidity was monitored daily. An electronic time controlled lighting system was used to provide a 12 hr light/12 hr dark cycle. 3 mice for each indicated time point were administered 30 mg/Kg CA39 or CA77 by oral gavage or 1 mg/Kg CA39 or CA77 by intravenous injection using 30% PEG-400, 65% D5W (5% dextrose in water), 5% Tween-80 vehicle. Mice were sacrificed, and brain samples were harvested at 0 hr, 0.25 hr, 0.5 hr, 1 hr, 2 hr, 4 hr, 8 hr, 24 hr, and analyzed for CA39 or CA77 levels using LC-MS/MS. Pharmacokinetics parameters were calculated using Phoenix WinNonlin 6.3. Experiments performed at SIMM-SERVIER joint Biopharmacy Laboratory.

[5] = Chronic toxicity in mice (blood count, histopathology); format: in vivo; settings: chronic (5 months) daily oral administration
Protocol: Liver, lung and kidneys from CA-treated animals were dissected and fixed in 1% PFA overnight and paraffin embedded. Tissues were sectioned, stained with hematoxylin and eosin (H&E) and analyzed by an expert pathologist, blind to the treatment groups, to score for possible presence of toxicity in these organs. Scoring 1-6 was used assigning 6 to those observations clinically relevant. Individual scoring per parameter and per organ and average scoring per organ were performed. Blood cell count in the groups of mice administered vehicle or CA was analyzed in tail blood drawn monthly and at the moment of tissue dissection using an Oxford Science Forcyte Blood Analysis Unit.

[6] = molecular target: T1, cellular RARα and NCoR1 (Mus musculus, UniProt P11416); test: Streptavidin pulldown of RARα and NCoR1 with biotinylated CA compound; format: binding; settings: NIH3T3, 10 μM, 24 h
T1 construct: endogenous in cells; host or cells: NIH3T3
T1 sequence (P11416 whole entry): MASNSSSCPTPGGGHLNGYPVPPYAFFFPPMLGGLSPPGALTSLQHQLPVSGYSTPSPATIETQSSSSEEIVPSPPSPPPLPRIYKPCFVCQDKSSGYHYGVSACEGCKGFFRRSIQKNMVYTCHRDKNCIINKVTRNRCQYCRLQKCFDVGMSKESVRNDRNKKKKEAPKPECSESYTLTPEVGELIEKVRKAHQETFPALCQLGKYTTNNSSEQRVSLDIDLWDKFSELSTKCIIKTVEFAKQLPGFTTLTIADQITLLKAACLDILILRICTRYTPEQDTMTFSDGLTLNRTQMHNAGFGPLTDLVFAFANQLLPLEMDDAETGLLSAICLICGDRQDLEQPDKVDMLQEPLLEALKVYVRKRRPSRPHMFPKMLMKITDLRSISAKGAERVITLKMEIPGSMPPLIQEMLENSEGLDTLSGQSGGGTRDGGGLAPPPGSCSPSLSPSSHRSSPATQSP
T1 sequence (Q60974 whole entry partner): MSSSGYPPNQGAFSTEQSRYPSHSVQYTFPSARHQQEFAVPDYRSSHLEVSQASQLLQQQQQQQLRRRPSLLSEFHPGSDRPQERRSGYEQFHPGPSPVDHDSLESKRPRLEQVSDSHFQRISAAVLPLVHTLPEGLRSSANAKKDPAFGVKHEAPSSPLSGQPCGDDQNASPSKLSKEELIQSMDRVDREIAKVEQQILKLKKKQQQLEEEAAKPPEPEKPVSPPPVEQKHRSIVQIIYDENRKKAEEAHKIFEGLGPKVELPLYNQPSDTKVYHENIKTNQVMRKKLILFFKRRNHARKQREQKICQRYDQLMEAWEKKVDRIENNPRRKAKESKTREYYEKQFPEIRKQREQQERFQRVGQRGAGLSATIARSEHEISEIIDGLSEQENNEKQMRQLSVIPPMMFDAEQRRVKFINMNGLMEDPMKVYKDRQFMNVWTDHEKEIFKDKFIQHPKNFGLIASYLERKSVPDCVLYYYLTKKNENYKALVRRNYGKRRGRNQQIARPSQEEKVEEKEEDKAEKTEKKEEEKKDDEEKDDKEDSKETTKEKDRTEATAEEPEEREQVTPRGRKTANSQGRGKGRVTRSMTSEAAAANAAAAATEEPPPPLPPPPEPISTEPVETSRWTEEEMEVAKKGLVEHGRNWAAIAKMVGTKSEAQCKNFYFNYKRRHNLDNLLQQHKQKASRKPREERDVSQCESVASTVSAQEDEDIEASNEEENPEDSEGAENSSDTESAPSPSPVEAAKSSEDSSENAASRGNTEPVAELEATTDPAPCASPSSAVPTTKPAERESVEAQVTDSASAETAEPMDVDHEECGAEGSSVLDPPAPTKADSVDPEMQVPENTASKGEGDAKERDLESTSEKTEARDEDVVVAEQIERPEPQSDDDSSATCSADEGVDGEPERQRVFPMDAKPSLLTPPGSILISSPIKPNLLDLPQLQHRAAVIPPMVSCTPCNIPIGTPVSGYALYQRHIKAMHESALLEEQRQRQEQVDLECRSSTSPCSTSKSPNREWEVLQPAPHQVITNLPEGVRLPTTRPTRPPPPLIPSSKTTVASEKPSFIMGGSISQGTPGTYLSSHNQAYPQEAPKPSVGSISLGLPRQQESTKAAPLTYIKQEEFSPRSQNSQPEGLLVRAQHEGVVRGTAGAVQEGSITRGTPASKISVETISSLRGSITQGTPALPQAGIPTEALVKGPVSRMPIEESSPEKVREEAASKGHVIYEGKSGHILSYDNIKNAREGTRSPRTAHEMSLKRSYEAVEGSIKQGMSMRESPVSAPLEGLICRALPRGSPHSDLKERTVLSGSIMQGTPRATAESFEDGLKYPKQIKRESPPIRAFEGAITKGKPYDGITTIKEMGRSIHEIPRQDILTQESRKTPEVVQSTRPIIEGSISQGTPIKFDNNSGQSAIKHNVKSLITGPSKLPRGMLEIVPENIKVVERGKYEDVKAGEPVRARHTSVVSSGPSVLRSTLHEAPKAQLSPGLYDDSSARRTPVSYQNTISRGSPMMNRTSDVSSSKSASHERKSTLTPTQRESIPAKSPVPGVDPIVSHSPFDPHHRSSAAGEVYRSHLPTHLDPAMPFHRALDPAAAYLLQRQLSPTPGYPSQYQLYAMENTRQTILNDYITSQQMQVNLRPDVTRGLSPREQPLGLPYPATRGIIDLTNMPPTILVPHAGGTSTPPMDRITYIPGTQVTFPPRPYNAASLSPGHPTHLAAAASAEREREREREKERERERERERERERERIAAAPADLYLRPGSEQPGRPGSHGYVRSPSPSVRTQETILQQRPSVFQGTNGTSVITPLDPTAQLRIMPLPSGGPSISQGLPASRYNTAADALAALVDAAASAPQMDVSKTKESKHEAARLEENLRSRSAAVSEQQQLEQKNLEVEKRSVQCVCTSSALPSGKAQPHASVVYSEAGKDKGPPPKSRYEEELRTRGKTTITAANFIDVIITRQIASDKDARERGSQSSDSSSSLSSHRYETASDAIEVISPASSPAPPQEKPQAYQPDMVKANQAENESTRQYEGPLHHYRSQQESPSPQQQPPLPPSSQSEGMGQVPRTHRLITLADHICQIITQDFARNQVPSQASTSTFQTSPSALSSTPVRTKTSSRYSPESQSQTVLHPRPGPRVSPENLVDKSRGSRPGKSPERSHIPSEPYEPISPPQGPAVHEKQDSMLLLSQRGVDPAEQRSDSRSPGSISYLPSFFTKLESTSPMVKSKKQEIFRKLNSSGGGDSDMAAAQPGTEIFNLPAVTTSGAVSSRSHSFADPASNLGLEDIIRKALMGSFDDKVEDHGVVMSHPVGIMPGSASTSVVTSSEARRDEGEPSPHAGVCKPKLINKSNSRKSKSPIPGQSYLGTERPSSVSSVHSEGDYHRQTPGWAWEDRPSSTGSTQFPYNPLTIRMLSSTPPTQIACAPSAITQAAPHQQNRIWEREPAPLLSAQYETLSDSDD

With Cc1ccc(C2=Nc3ccc(Cl)cc3OC2)cc1 [AR7, reference compound] the “intracellular rates of degradation of long-lived proteins” value [1] was “sustained only for the first 12 h after addition of the compound”, the “number of CMA network components with changed expression” value ([2]; of the 17 currently accepted components) was 8 and the “changes in the transcriptome” value [2] was “only induced changes in the expression of a discrete fraction of genes”. For the same compound, the CMA activation [3] was “very discrete”.

For CC1(C)CC=C(c2cnc3ccccc3c2)c2cc(C(=O)Nc3ccc(C(=O)O)cc3)ccc21 [BMS614], the “changes in the transcriptome” value [2] was “marked changes in the transcriptome”.

For CC(=O)Nc1ccc(-c2cnc3cc(Cl)ccc3n2)cc1 [CA77.1], the Kp ([4]; brain/plasma, read-out: AUC brain/plasma) was 5.73, the half-life ([4]; plasma, read-out: Plasma half-life (converted)) was 180 min and the “peripheral blood or major organ toxicity” value [5] was “lack of peripheral blood or major organ (liver, lung, kidney) toxicity”.

For O=C(CCCC[C@H]1SCC2NC(=O)NC21)NCCCOCCOCCOCCCNC(=O)c1ccc(C2=Nc3ccc(Cl)cc3OC2)cc1 (stereo partly drawn) [biotinylated CA compound], the “co-immunoprecipitation of cellular RARα and NCoR1” value [6] was “could be co-immunoprecipitated”.
